# Test results reported in ChEMBL document CHEMBL4393715, “Design, synthesis and biological evaluation of the thioether-containing lenalidomide analogs with anti-proliferative activities” (Eur J Med Chem, 2019).
# Tests used:
# [1] = system: MM1.S; assay: Antiproliferative activity against human MM1S cells measured after 168 hrs by CellTiter96 Aqueous non-radioactive cell proliferation assay; format: functional, cell-based
# [2] = Antiproliferative activity against human Mino cells measured after 72 hrs by CellTiter96 Aqueous non-radioactive cell proliferation assay; format: functional, cell-based
# [3] = system: MV4-11; assay: Antiproliferative activity against human MV411 cells measured after 168 hrs by CellTiter96 Aqueous non-radioactive cell proliferation assay; format: functional, cell-based; conditions: MV4-11, 168 h
# [4] = system: THP-1; assay: Antiproliferative activity against human THP1 cells measured after 168 hrs by CellTiter96 Aqueous non-radioactive cell proliferation assay; format: functional, cell-based; conditions: THP-1, 168 h
# [5] = system: PBMC; assay: Cytotoxicity against human PBMC cells by CellTiter96 Aqueous non-radioactive cell proliferation assay; format: cell-based
# [6] = system: Raji; assay: Antiproliferative activity against human Raji cells measured after 168 hrs by CellTiter96 Aqueous non-radioactive cell proliferation assay; format: functional, cell-based
# [7] = system: Kasumi 1; assay: Antiproliferative activity against human Kasumi-1 cells measured after 168 hrs by CellTiter96 Aqueous non-radioactive cell proliferation assay; format: functional, cell-based; conditions: Kasumi 1, 168 h
# [8] = system: JeKo-1; assay: Antiproliferative activity against human JeKo1 cells measured after 72 hrs by CellTiter96 Aqueous non-radioactive cell proliferation assay; format: functional, cell-based; conditions: JeKo-1, 72 h
# [9] = system: Z-138; assay: Antiproliferative activity against human Z138 cells measured after 72 hrs by CellTiter96 Aqueous non-radioactive cell proliferation assay; format: functional, cell-based; conditions: Z-138, 72 h
# [10] = system: RPMI-8226; assay: Antiproliferative activity against human RPMI8226 cells measured after 72 hrs by CellTiter96 Aqueous non-radioactive cell proliferation assay; format: functional, cell-based; conditions: RPMI-8226, 72 h
# [11] = system: U-266; assay: Antiproliferative activity against human U266 cells measured after 72 hrs by CellTiter96 Aqueous non-radioactive cell proliferation assay; format: functional, cell-based; conditions: U-266, 72 h
# [12] = AUC (infinity) in BALB/c mouse at 20 mg/kg, po and measured up to 24 hrs by LC-MS/MS analysis; format: ADME, organism-based; design: dose 20 mg/kg, route oral, time infinity; conditions: in vivo
# [13] = Volume of distribution at steady state in BALB/c mouse at 5 mg/kg, iv and measured up to 24 hrs by LC-MS/MS analysis; format: ADME, organism-based; conditions: in vivo, read-out: Vdss
# [14] = AUC (infinity) in BALB/c mouse at 5 mg/kg, iv and measured up to 24 hrs by LC-MS/MS analysis; format: ADME, organism-based; design: dose 5 mg/kg, route intravenous, time infinity; conditions: in vivo
# [15] = Half-life in BALB/c mouse at 5 mg/kg, iv and measured up to 24 hrs by LC-MS/MS analysis; format: ADME, organism-based; conditions: in vivo
# [16] = Cmax in BALB/c mouse at 20 mg/kg, po and measured up to 24 hrs by LC-MS/MS analysis; format: ADME, organism-based; design: dose 20 mg/kg, route oral; conditions: in vivo
# [17] = MRT (infinity) in BALB/c mouse at 5 mg/kg, iv and measured up to 24 hrs by LC-MS/MS analysis; format: ADME, organism-based; conditions: in vivo
# [18] = Terminal elimination half life in BALB/c mouse at 20 mg/kg, po and measured up to 24 hrs by LC-MS/MS analysis; format: ADME, organism-based; conditions: in vivo, read-out: LambdaZ (converted)
# [19] = Oral bioavailability in BALB/c mouse at 20 mg/kg and measured up to 24 hrs by LC-MS/MS analysis; format: ADME, organism-based; conditions: in vivo
# [20] = Clearance in BALB/c mouse at 5 mg/kg, iv and measured up to 24 hrs by LC-MS/MS analysis; format: ADME, organism-based; conditions: in vivo
# [21] = Tmax in BALB/c mouse at 20 mg/kg, po and measured up to 24 hrs by LC-MS/MS analysis; format: ADME, organism-based; conditions: in vivo
# [22] = system: RPMI-8226; assay: Antitumour activity against human RPMI8226 cells xenografted in CB-17 SCID mouse assessed as inhibition of tumour growth at 60 mg/kg/day, po measured twice a week for 21 days relative to control; format: functional; design: scale not given: the % may be the effect or the level left
# [23] = Toxicity in CB-17 SCID mouse xenografted with human RPMI8226 cells assessed as body weight at 60 mg/kg/day, po and measured after day 18 (reference value: 20.1 to 20.4 g); format: organism-based; conditions: in vivo
# [24] = system: RPMI-8226; assay: Antitumour activity against human RPMI8226 cells xenografted in CB-17 SCID mouse assessed as relative tumour volume at 60 mg/kg/day, po measured twice a week for 21 days; format: functional
# [25] = Toxicity in CB-17 SCID mouse xenografted with human RPMI8226 cells assessed as mortality at 60 mg/kg/day, po and measured after day 18; format: organism-based; conditions: in vivo
# [26] = system: RPMI-8226; assay: Antitumour activity against human RPMI8226 cells xenografted in CB-17 SCID mouse assessed as tumour volume at 60 mg/kg/day, po measured after day 18 (reference value: 153 to 154 mm3); format: functional
compound,measurement,setting,value
Cc1cccc(CSc2cccc3c2CN(C2CCC(=O)NC2=O)C3=O)c1 (stereo unspecified),IC50,[1],0.4 nM
same,IC50,[2],3.3 nM
same,IC50,[3],> 20000 nM
O=C1CCC(N2Cc3c(cccc3[S+]([O-])Cc3ccc(CN4CCOCC4)cc3)C2=O)C(=O)N1 (stereo unspecified),IC50,[2],100 nM
O=C1CCC(N2Cc3c(cccc3S(=O)(=O)Cc3ccc(CN4CCOCC4)cc3)C2=O)C(=O)N1 (stereo unspecified),IC50,[2],> 20000 nM
CC1CN(C(=O)c2ccc(CSc3cccc4c3CN(C3CCC(=O)NC3=O)C4=O)cc2)CC(C)O1 (stereo unspecified),IC50,[2],6.5 nM
Cc1ccc(CSc2cccc3c2CN(C2CCC(=O)NC2=O)C3=O)cc1 (stereo unspecified),IC50,[4],> 20000 nM
same,IC50,[5],> 20000 nM
same,IC50,[6],> 20000 nM
same,IC50,[7],> 20000 nM
same,IC50,[1],0.4 nM
same,IC50,[8],> 20000 nM
same,IC50,[9],> 20000 nM
same,IC50,[10],5.4 nM
same,IC50,[11],5.6 nM
same,IC50,[2],2.9 nM
same,IC50,[3],> 20000 nM
CN1CCN(C(=O)c2ccc(CSc3cccc4c3CN(C3CCC(=O)NC3=O)C4=O)cc2)CC1 (stereo unspecified),IC50,[2],3.4 nM
CSc1cccc2c1CN(C1CCC(=O)NC1=O)C2=O (stereo unspecified),IC50,[1],2.1 nM
same,IC50,[2],930 nM
same,IC50,[3],> 20000 nM
N#Cc1ccccc1CSc1cccc2c1CN(C1CCC(=O)NC1=O)C2=O (stereo unspecified),IC50,[1],2.9 nM
same,IC50,[2],30.5 nM
same,IC50,[3],> 20000 nM
O=C1CCC(N2Cc3c(SCc4ccc(F)cc4)cccc3C2=O)C(=O)N1 (stereo unspecified),IC50,[4],> 20000 nM
same,IC50,[5],> 20000 nM
same,IC50,[6],> 20000 nM
same,IC50,[7],> 20000 nM
same,IC50,[1],0.9 nM
same,IC50,[8],> 20000 nM
same,IC50,[9],> 20000 nM
same,IC50,[10],40 nM
same,IC50,[11],2.6 nM
same,IC50,[2],2.6 nM
same,IC50,[3],> 20000 nM
CCNC(=O)c1ccc(CSc2cccc3c2CN(C2CCC(=O)NC2=O)C3=O)cc1 (stereo unspecified),IC50,[2],4.2 nM
O=C1CCC(N2Cc3c(SCc4ccccc4F)cccc3C2=O)C(=O)N1 (stereo unspecified),IC50,[1],0.6 nM
same,IC50,[2],2.9 nM
same,IC50,[3],> 20000 nM
O=C1CCC(N2Cc3c(SCc4ccc(C(=O)N5CCCCC5)cc4)cccc3C2=O)C(=O)N1 (stereo unspecified),AUC(0-inf),[12],34.1 ng·h/mL
same,Vd,[13],5.31 L/kg
same,AUC(0-inf),[14],424 ng·h/mL
same,half-life,[15],42 min
same,Cmax,[16],16.7 ng/mL
same,MRT inf,[17],27 min
same,IC50,[2],0.5 nM
same,half-life,[18],84.6 min
same,bioavailability,[19],2.9%
same,clearance,[20],197 mL/min/kg
same,Tmax,[21],30 min
Cc1ccccc1CSc1cccc2c1CN(C1CCC(=O)NC1=O)C2=O (stereo unspecified),IC50,[1],1.8 nM
same,IC50,[2],16.6 nM
same,IC50,[3],> 20000 nM
O=C1CCC(N2Cc3c(SCc4ccccc4)cccc3C2=O)C(=O)N1 (stereo unspecified),IC50,[1],1.1 nM
same,IC50,[2],6.3 nM
same,IC50,[3],> 20000 nM
CNC(=O)c1ccc(CSc2cccc3c2CN(C2CCC(=O)NC2=O)C3=O)cc1 (stereo unspecified),IC50,[2],28.3 nM
O=C1CC[C@H](N2Cc3c(OCc4ccc(CN5CCOCC5)cc4)cccc3C2=O)C(=O)N1 [IBERDOMIDE],Activity,[22],27.07%
same,AUC(0-inf),[12],1810 ng·h/mL
same,Vd,[13],1.9 L/kg
same,IC50,[1],13 nM
same,AUC(0-inf),[14],1940 ng·h/mL
same,half-life,[15],58.2 min
same,Activity,[23],22.1 g
same,Cmax,[16],2060 ng/mL
same,MRT inf,[17],43.8 min
same,IC50,[2],112 nM
same,IC50,[3],> 20000 nM
same,half-life,[18],54 min
same,bioavailability,[19],22.8%
same,fold change (FC),[24],3.42
same,clearance,[20],43.5 mL/min/kg
same,Tmax,[21],8.4 min
same,Activity,[25],Non-Toxic
same,Activity,[26],517 mm3
Nc1cccc2c1CN(C1CCC(=O)NC1=O)C2=O (stereo unspecified) [LENALIDOMIDE],IC50,[4],> 20000 nM
same,IC50,[5],> 20000 nM
same,IC50,[6],> 20000 nM
same,IC50,[7],> 20000 nM
same,IC50,[1],50 nM
same,IC50,[8],> 20000 nM
same,IC50,[9],> 20000 nM
same,IC50,[10],> 20000 nM
same,IC50,[11],> 20000 nM
same,IC50,[2],> 20000 nM
same,IC50,[3],> 20000 nM
